Results published in patent US11001590B2, “Pyrazolopyrimidine derivatives” (BAYER ANIMAL HEALTH GMBH, priority 2016, dated 2021).

How the values were obtained:
[1] = target: C. elegans Slo-1a (Caenorhabditis elegans, UniProt Q95V25); assay: In vitro assay 1: C. elegans Slo-1a, action at a recombinant C. elegans CHO cell line (membrane potential measurement)
[2] = log P by HPLC on reversed phase columns (Method L0; [a] acidic, [b] neutral range)
Method: Calibration was done with straight-chain alkan-2-ones (with 3 to 16 carbon atoms) with known log P values (measurement of log P values using retention times with linear interpolation between successive alkanones). Lambda-max-values were determined using UV-spectra from 200 nm to 400 nm and the peak values of the chromatographic signals.

[3] = tested on: Nippostrongylus brasiliensis; assay: In vitro assay 2: Nippostrongylus brasiliensis (NIPOBR), acetylcholine esterase readout; details: adult worms, read-out: activity (reduction of AChE compared to negative control); for inhibition at 1 µg/mL: 1 μg/ml (1 ppm); for inhibition at 10 µg/mL: 10 μg/ml (10 ppm)
Method: In Vitro Assay 2: Nippostronqylus Brasiliensis (NIPOBR)
Adult Nippostrongylus brasiliensis were washed with saline buffer containing 100 U/ml penicillin, 0.1 mg/ml streptomycin and 2.5 μg/ml amphotericin B. Test compounds were dissolved in DMSO and worms were incubated in medium in a final concentration of 10 μg/ml (10 ppm) respectively 1 μg/ml (1 ppm). An aliquot of the medium was used to determine the acetylcholine esterase activity in comparison to a negative control. The principle of measuring acetylcholine esterase as readout for anthelmintic activity was described in Rapson et al (1986) and Rapson et al (1987).

[4] = tested on: Litomosoides sigmodontis third-stage larvae; assay: In vitro assay 7: Litomosoides sigmodontis L3 (LTMOSI), motility; details: 72 h, reduction of motility vs negative control, 72 h incubation
Method: In Vitro Assay 7: Litomosoides Siqmodontis L3 (LTMOSI)
10 Litomosoides sigmodontis third-stage larvae, which were freshly isolated from the pleural cavity of an infected rodent, were added to wells of a microtitre plate containing a nutrient medium and the test compound in DMSO. Compounds were tested in concentration-response assay in duplicate. Larvae exposed to DMSO and no test compounds were used as negative controls. Larvae were evaluated after 72 h of incubation with the compound. Efficacy was determined as the reduction of motility in comparison to the negative control. Based on the evaluation of a wide concentration range, concentration-response curves as well as ECso-values were calculated.

[5] = tested on: Cooperia curticei; assay: In vitro assay 5: Cooperia curticei (COOPCU), larval mortality; details: 120 h, read-out: activity (percentage of larval mortality)
Method: In Vitro Assay 5: Cooperia curticei (COOPCU)
Solvent: Dimethyl Sulfoxide
Approximately 40 nematode larvae (Cooperia curticei) are transferred into a test tube containing the compound solution.
After 5 days percentage of larval mortality is recorded. 100% efficacy means all larvae are killed; 0% efficacy means no larvae are killed.

[6] = tested on: Dirofilaria immitis third-stage larvae; assay: In vitro assay 4: Dirofilaria immitis (DIROIM L4), motility of larvae; details: 72 h
[7] = tested on: Dirofilaria immitis microfilariae; assay: In vitro assay 3: Dirofilaria immitis microfilariae (DIROIM L1), motility; details: 72 h, reduction of motility vs negative control, 72 h incubation
[8] = tested on: Haemonchus contortus; assay: In vitro assay 6: Haemonchus contortus (HAEMCO), larval mortality; details: for mortality at 20 ppm / mortality at 4 ppm: Haemonchus contortus, 120 h, read-out: activity (percentage of larval mortality)
Method: In Vitro Assay 6: Haemonchus contortus (HAEMCO)
Solvent: dimethyl sulfoxide
Approximately 40 larvae of the red stomach worm (Haemonchus contortus) are transferred into a test tube containing compound solution.
After 5 days the percentage of larval mortality is recorded. 100% efficacy means all larvae are killed, 0% efficacy means no larvae are killed.

Sequence of C. elegans Slo-1a (Q95V25 whole entry): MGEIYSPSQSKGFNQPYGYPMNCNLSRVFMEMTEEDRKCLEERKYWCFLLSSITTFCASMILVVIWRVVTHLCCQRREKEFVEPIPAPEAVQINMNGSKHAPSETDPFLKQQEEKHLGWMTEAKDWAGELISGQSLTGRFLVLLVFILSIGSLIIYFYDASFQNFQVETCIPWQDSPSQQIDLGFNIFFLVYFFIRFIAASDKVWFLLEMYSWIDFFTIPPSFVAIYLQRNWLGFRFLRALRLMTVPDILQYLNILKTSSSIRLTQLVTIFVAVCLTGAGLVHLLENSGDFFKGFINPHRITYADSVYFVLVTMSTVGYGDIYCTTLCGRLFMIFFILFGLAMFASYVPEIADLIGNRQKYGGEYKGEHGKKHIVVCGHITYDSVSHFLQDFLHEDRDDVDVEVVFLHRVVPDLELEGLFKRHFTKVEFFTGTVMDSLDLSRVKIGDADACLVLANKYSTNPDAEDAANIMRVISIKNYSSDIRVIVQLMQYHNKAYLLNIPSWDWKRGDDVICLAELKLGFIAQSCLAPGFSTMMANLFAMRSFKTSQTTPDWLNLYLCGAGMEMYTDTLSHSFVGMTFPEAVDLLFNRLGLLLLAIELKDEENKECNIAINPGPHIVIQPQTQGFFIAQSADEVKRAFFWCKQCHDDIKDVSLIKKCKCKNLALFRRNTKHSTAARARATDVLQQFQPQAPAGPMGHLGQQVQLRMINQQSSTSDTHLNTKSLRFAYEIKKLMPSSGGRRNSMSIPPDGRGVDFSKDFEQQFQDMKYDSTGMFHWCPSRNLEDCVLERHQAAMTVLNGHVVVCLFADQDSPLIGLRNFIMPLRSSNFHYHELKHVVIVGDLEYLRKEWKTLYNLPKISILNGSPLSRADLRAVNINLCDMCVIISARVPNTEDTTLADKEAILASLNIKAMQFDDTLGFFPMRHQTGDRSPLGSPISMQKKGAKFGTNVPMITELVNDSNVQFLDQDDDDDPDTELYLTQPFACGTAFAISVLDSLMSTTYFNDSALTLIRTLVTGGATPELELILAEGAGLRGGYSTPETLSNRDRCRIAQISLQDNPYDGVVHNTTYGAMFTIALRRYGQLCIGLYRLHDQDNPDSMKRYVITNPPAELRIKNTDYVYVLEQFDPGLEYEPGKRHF

Row | Compound | EC50 [1] | chromatographic logP [2] | inhibition at 1 µg/mL [3] | inhibition at 10 µg/mL [3] | EC50 [4] | mortality at 20 ppm [5] | EC50 [6] | EC50 [7] | mortality at 20 ppm [8] | mortality at 4 ppm [8] | pE50 ([1]; CHO cells expressing C. elegans Slo-1a, voltage sensitive dye, FLIPR Tetra, negative decadic logarithm of EC50) | activity (percentage of larval mortality) ([8]; application rate 20 ppm, after 5 days)
1 | COc1c(F)ccc(-c2c(C)nn3c(C(C)C)c(C(=O)N[C@H]4CCOc5ccccc54)cnc23)c1F [Example 192] | 0.398 nM | 4.32 | > 80% | > 80% | < 0.1 µg/mL | 100% | < 0.1 µg/mL | < 0.1 µg/mL | 90% |  |  | 
2 | COc1ccc(F)c(-c2c(C)nn3c(C(C)C)c(C(=O)N[C@H]4CCOc5ccccc54)cnc23)c1F [Example 232] | 5.01 nM | 4.04 |  | > 80% | < 0.1 µg/mL | 80% | < 0.1 µg/mL | < 1 µg/mL |  |  |  | 
3 | Cc1nn2c(C(C)C)c(C(=O)N[C@H]3CCOc4ccccc43)cnc2c1-c1cc(Cl)cc(Cl)c1Cl [Example 234] | 1.26 nM | 5.48 | > 80% | > 80% | < 0.1 µg/mL | 90% | < 0.1 µg/mL | < 0.1 µg/mL | 90% |  |  | 
4 | COc1cc(-c2c(C)nn3c(C(C)C)c(C(=O)N[C@H]4CCOc5ccccc54)cnc23)ccc1F [Example 244] | 6.31 nM | 4.32 | > 80% | > 80% | < 0.1 µg/mL | 90% | < 0.1 µg/mL | < 1 µg/mL |  |  |  | 
5 | Cc1nn2c(C(C)C)c(C(=O)N[C@H]3CCOc4ccccc43)cnc2c1-c1c(F)ccc(F)c1F [Example 253] | 1.26 nM | 4.32 |  | > 80% | < 0.1 µg/mL |  | < 0.1 µg/mL | < 0.1 µg/mL |  | 80% |  | 
6 | Cc1nn2c(C(C)C)c(C(=O)N[C@H]3CCOc4ccccc43)cnc2c1-c1c(F)ccc(Cl)c1F [Example 255] | 1.58 nM | 4.72 | > 80% | > 80% | < 0.1 µg/mL | 90% | < 0.1 µg/mL | < 0.1 µg/mL | 90% |  |  | 
7 | Cc1nn2c(C(C)C)c(C(=O)N[C@H]3CCOc4ccccc43)cnc2c1-c1cc(Cl)ccc1F [Example 256] | 2.51 nM | 4.87 |  |  | < 0.1 µg/mL | 80% | < 0.1 µg/mL | < 0.1 µg/mL | 80% |  |  | 
8 | Cc1nn2c(C(C)C)c(C(=O)N[C@H]3CCOc4ccccc43)cnc2c1-c1cccc(N(C)C)c1F [Example 260] | 3.16 nM | 4.18 | > 80% | > 80% |  | 90% |  | < 1 µg/mL | 80% |  |  | 
9 | Cc1nn2c(C(C)C)c(C(=O)N[C@H]3CCc4ccccc43)cnc2c1-c1cc(Cl)cc(Cl)c1F [Example 261] | 1.58 nM | 5.65 | > 80% | > 80% |  | 80% | < 0.1 µg/mL | < 0.1 µg/mL |  |  |  | 
10 | Cc1nn2c(C(C)C)c(C(=O)N[C@H]3CCOc4ccccc43)cnc2c1-c1cc(Cl)cc(Cl)c1F [Example 262] | 0.501 nM | 5.36 | > 80% | > 80% | < 0.1 µg/mL | 90% | < 0.1 µg/mL | < 0.1 µg/mL |  |  |  | 
11 | Cc1nn2c(C3CC3)c(C(=O)N[C@H]3CCc4ccccc43)cnc2c1-c1c(F)ccc(Cl)c1F [Example 436] | 1.58 nM | 4.18 | > 80% | > 80% | < 0.1 µg/mL | 80% | < 0.1 µg/mL | < 0.1 µg/mL | 80% |  |  | 
12 | Cc1nn2c(C(C)C)c(C(=O)N[C@H]3CCOc4ccccc43)cnc2c1-c1cccc2c1CCN2C [Example 461] | 2 nM | 4.11 | > 80% | > 80% | < 0.1 µg/mL | 90% | < 0.1 µg/mL | < 1 µg/mL | 80% |  |  | 
13 | Cc1nn2c(C3CC3)c(C(=O)N[C@H]3CCOc4ccccc43)cnc2c1-c1cccc(F)c1Cl [Example 472] | 1.58 nM | 3.72 | > 80% |  | < 0.1 µg/mL | 80% | < 0.1 µg/mL | < 0.1 µg/mL |  | 80% |  | 
14 | Cc1nn2c(C3CC3)c(C(=O)N[C@H]3CCOc4ccccc43)cnc2c1-c1cccc(Cl)c1Cl [Example 473] | 0.501 nM | 4.07 | > 80% | > 80% | < 0.1 µg/mL | 90% | < 0.1 µg/mL | < 0.1 µg/mL |  |  |  | 
15 | Cc1nn2c(C3CC3)c(C(=O)N[C@H]3CCOc4ccccc43)cnc2c1-c1cccc2c1CCN2C [Example 474] | 6.31 nM | 3.25 |  | > 80% | < 0.1 µg/mL | 90% | < 0.1 µg/mL | < 1 µg/mL |  |  |  | 
16 | CCc1c(C(=O)N[C@H]2CCOc3ccccc32)cnc2c(-c3c(F)ccc(Cl)c3F)c(C)nn12 [Example 489] |  |  |  |  |  |  |  |  |  |  | 8.8 | 90%
17 | Cc1nn2c(N3CCOCC3)c(C(=O)N[C@H]3CCOc4ccccc43)cnc2c1-c1cccc(Cl)c1Cl [Example 517] | 0.631 nM | 3.51 | > 80% | > 80% | < 0.1 µg/mL | 100% | < 0.1 µg/mL | < 0.1 µg/mL | 100% |  |  | 
18 | Cc1nn2c(N(C)C)c(C(=O)N[C@H]3CCOc4ccccc43)cnc2c1-c1cccc(Cl)c1Cl [Example 518] | 1 nM | 3.94 | > 80% | > 80% | < 0.1 µg/mL | 100% | < 0.1 µg/mL | < 0.1 µg/mL | 100% |  |  | 
19 | COc1c(F)cc(F)c(-c2c(C)nn3c(N4CCOCC4)c(C(=O)N[C@H]4CCOc5ccccc54)cnc23)c1F [Example 531] | 1 nM | 2.88 | > 80% |  | < 0.1 µg/mL | 100% | < 0.1 µg/mL | < 0.1 µg/mL | 100% |  |  | 
20 | Cc1nn2c(N3CCOCC3)c(C(=O)N[C@H]3CCOc4ccccc43)cnc2c1-c1cccc(C(F)(F)F)c1Cl [Example 532] | 1 nM | 5.59 |  |  |  | 100% |  | < 0.1 µg/mL | 90% |  |  | 
21 | CNc1c(C(=O)N[C@H]2CCOc3ccccc32)cnc2c(-c3cccc(Cl)c3Cl)c(C)nn12 [Example 548] | 6.31 nM | 4.18 |  |  |  | 90% |  | < 0.1 µg/mL | 90% |  |  | 
